The results in this text go back to patent EP3808411A1, “COSMETIC COMPOSITIONS AND USE THEREOF” (Mesoestetic Pharma Group, S.L., priority 2019, dated 2020).

The test system of one assay is human dermal fibroblasts. Description: β-galactosidase staining in a model of UVB-induced senescence. In kind it is cell-based. How it is done:
(§1) In order to verify the action of the shikimic acid as a protector against the process of cellular senescence induced by Ultraviolet Type-B (UVB) damage, the shikimic acid was tested in a model of UVB-induced senescence in human dermal fibroblasts. In this model, two days after being plated, the cells are irradiated with UVB. After three days, the cells are re-irradiated with UVB. Two days after the second irradiation, the cells are processed for analysis. The shikimic acid is incubated with the cells from 24 h before the first irradiation until the day they are analysed. To assess whether cells are senescent or not, two markers are used. On the one hand, β-galactosidase staining is carried out, which stains the senescent cells blue, since they have an abnormal lysosomal activity at pH 6. Furthermore, the expression of the HAS2 gene is quantified by means of the qPCR technique.

Another assay has as its system HAS2 gene. Description: HAS2 gene expression by qPCR in a model of UVB-induced senescence. The assay is classed as cell-based, human. How it is done:
as §1
For orientation: Quantitative PCR measures a nucleic acid by following its amplification.

Entries after “also recorded” stand apart in the source; their conditions may differ.

Regarding `N#CC(=Cc1ccc(-c2cc(Cl)ccc2Cl)o1)C(=O)Nc1cccc2ncccc12` [AGK2], the “effect of inhibitor on the protective role of shikimic acid on senescence” value in the assay on human dermal fibroblasts (UVB-irradiated cells, 10, 25, 50 mM shikimic acid + AGK2 2 µM, Figures 5 and 6) is “do not reverse the protective effect of shikimic acid on senescence”.
Regarding `NC(=O)C1CCCc2c1[nH]c1ccc(Cl)cc21` (centres unmarked) [EX-527], in the assay with HAS2 gene (UVB-irradiated cells, shikimic acid (SX) + EX-527 1 µM versus SX only, Figure 4), the “HAS2 gene expression with shikimic acid + inhibitor” value is given as “reversed to a lesser extent”. Also, the “effect of inhibitor on the protective role of shikimic acid on senescence (β-galactosidase staining)” value in the assay with human dermal fibroblasts (UVB-irradiated cells, 10, 25, 50 mM shikimic acid + EX-527 1 µM, Figure 3) is reported as “capable of reversing the effect of shikimic acid on senescence”.
As for `O=C(Nc1ccc(O)c(C(=O)O)c1)c1cccc(NC(=O)c2ccco2)c1` [OSS128167], the “effect of inhibitor on the protective role of shikimic acid on senescence” value in the assay with human dermal fibroblasts (UVB-irradiated cells, 10, 25, 50 mM shikimic acid + OSS128167 200 µM, Figures 7 and 8) was “do not reverse the protective effect of shikimic acid on senescence”.
On to `COC1=C(OC)C(=O)C(CCCCCCCCCCO)=C(C)C1=O` [idebenone], for which the “protection against UVB damage-induced senescence (β-galactosidase staining)” value in the assay on human dermal fibroblasts (UVB-irradiated cells treated with 2.5, 5, 10 µM idebenone, Figure 9) was “neither of these two comparative compounds is capable of protecting against UVB damage-induced senescence”.
For the compound `O=C(O)CCCCC1CCSS1` (centres unmarked) [lipoic acid], in the assay with human dermal fibroblasts (UVB-irradiated cells treated with 50, 100, 200 µM lipoic acid, Figure 10), the “protection against UVB damage-induced senescence (β-galactosidase staining)” value was “neither of these two comparative compounds is capable of protecting against UVB damage-induced senescence”.
`O=C(O)C1=CC(O)C(O)C(O)C1` (centres unmarked) [shikimic acid, 3,4,5-trihydroxy-1-cyclohexene-1-carboxylic acid]: the HAS2 gene expression entry in the assay with HAS2 gene (UVB-irradiated human dermal fibroblasts treated with 10, 25, 50 mM shikimic acid, Figure 2) was “this decrease is reversed in gene expression”. In addition, the “senescent cells (β-galactosidase staining)” value in the assay with human dermal fibroblasts (UVB-irradiated human dermal fibroblasts treated with 10, 25, 50 mM shikimic acid, Figure 1) was “this increase in senescence does not occur; also recorded: more effective than other compounds such as idebenone or lipoic acid”.
